We go through ten molecules from ChEMBL document CHEMBL4814026, “Discovery of novel reversible monoacylglycerol lipase inhibitors via docking-based virtual screening” (Bioorg Med Chem Lett, 2021).

Activity calls are given as the source filed them. No cut-off for these calls is given here. Some results are limits rather than exact numbers.

The target in experiment [1] is T1, Monoglyceride lipase (Rattus norvegicus, UniProt Q8R431).
T1 sequence (Q8R431 whole entry): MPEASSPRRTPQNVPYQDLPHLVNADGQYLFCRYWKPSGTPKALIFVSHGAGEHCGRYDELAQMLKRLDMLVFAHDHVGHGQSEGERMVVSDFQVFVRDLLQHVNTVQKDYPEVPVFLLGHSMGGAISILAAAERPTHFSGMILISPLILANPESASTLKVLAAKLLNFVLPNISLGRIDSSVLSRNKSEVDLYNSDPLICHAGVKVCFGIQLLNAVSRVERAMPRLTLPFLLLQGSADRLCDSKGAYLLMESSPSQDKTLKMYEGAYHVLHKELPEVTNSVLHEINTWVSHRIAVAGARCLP
Kind of experiment: Inhibition of recombinant rat MAGL by LC-MS analysis.

Experiment [2] addresses T2, Monoglyceride lipase (Homo sapiens, UniProt Q99685).
T2 sequence (Q99685 whole entry): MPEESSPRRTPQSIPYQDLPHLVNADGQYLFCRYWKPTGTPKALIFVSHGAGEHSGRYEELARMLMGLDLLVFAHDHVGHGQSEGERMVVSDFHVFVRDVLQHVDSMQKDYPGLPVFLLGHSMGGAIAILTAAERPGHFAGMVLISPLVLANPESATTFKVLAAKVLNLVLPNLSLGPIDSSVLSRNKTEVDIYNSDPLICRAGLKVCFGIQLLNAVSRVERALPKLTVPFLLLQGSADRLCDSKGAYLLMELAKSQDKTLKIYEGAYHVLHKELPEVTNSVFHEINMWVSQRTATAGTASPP
Kind of experiment: Inhibition of MAGL (unknown origin).

Experiment [3] concerns RAW264.7. The experiment in a line: Antiinflammatory activity in mouse RAW264.7 cells assessed as reduction in LPS-induced IL-6 mRNA expression measured after 24 hrs by RT-PCR analysis. In kind it is functional, cell-based. Conditions: dose 20-40 µM.
Experiment [4] deals with T2, Monoglyceride lipase. Kind of experiment: Binding affinity to MAGL (unknown origin) by SPR analysis. For orientation: SPR reads the build-up and loss of mass on a sensor chip optically.
The test system of experiment [5] is RAW264.7. The experiment in a line: Antiinflammatory activity in mouse RAW264.7 cells assessed as reduction in LPS-induced CCL-2 mRNA expression measured after 24 hrs by RT-PCR analysis. In kind it is functional, cell-based. Conditions: dose 20-40 µM.
Experiment [6] concerns the target T3, Monoglyceride lipase (Homo sapiens) (UniProt Q99685).
T3 sequence (whole entry): T2 sequence (Q99685 whole entry)
Kind of experiment: Inhibition of MAGL (unknown origin) in presence of DTT.

Experiment [7] has as its system RAW264.7. The experiment in a line: Antiinflammatory activity in mouse RAW264.7 cells assessed as reduction in LPS-induced IL-1beta mRNA expression measured after 24 hrs by RT-PCR analysis. Type of experiment: functional, cell-based. Conditions: dose 20-40 µM.
For experiment [8], the target named is T4, Monoglyceride lipase (Mus musculus) (UniProt O35678).
T4 sequence (whole entry): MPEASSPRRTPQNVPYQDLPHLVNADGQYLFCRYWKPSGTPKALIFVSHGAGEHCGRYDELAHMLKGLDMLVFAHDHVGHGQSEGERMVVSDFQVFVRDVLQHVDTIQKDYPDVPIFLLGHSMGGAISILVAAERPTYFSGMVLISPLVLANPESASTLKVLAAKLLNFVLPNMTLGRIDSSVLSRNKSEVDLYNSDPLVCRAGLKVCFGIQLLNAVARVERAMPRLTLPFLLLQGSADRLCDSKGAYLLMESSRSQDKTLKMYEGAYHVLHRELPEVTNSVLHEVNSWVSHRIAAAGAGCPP
Kind of experiment: Inhibition of MAGL in mouse RAW264.7 cells assessed as increase in 2-AG level at 30 uM. In kind it is cell-based.

The target of experiment [9] is T3, Monoglyceride lipase (Homo sapiens). Kind of experiment: Reversible inhibition of MAGL (unknown origin).

On to `CC(C)=CCC[C@@H](C)[C@@H]1CC[C@]2(C)C3=C(CC[C@@]12C)[C@@]1(C)CC[C@H](O)C(C)(C)[C@@H]1CC3` [EUPHOL], for which the IC50 at Monoglyceride lipase [1] amounted to 315 nM.
In the case of `COc1cc(N2CCN(C(=O)c3ccc4nc(N5CCC(C)CC5)sc4c3)CC2)cc(OC)c1OC`, on Monoglyceride lipase [2], the IC50 is greater than 33300 nM.
`O=C(C1CCCN(c2nc3ncccc3s2)C1)N1CCN(Cc2ccc3c(c2)OCO3)CC1` (configuration not stated) registered a half-inhibitory concentration (IC50) against Monoglyceride lipase [2] greater than 33300 nM.
Consider `COC(=O)[C@]1(C)CC[C@]2(C)CC[C@]3(C)C4=CC=C5C(=CC(=O)C(O)=C5C)[C@]4(C)CC[C@@]3(C)[C@@H]2C1` [PRISTIMERIN], for which, at Monoglyceride lipase [1], the concentration for half-maximal inhibition (IC50) was 93 nM.
`O=C(c1ccc2nc(N3CCCCC3)sc2c1)N1CCN(c2ccccn2)CC1` displayed an IC50 at Monoglyceride lipase [2] greater than 33300 nM.
As for `COc1ccc(N2CCN(C(=O)c3ccc4nc(N5CCC(C)CC5)sc4c3)CC2)cc1`, the Activity result in the experiment on RAW264.7 [3], in the experiment with RAW264.7 [5] and in the experiment on RAW264.7 [7] was “Dose-Dependent Effect” throughout. In addition, the Kd at Monoglyceride lipase [4] turned out to be 710 nM. In addition, on Monoglyceride lipase [2], the concentration for half-maximal inhibition (IC50) came out at 2840 nM. For the same molecule, the inhibition entry in experiment [6], in experiment [8] and in [9] was “Active” each time.
The molecule `CC1CCN(c2nc3ccc(C(=O)N4CCN(Cc5ccccc5)CC4)cc3s2)CC1` gave a 50% inhibitory concentration (IC50) on Monoglyceride lipase [2] of 2870 nM.
On the same count and under the same terms, under `O=C(C1CCN(c2nc3ncccc3s2)CC1)N1CCN(Cc2ccc3c(c2)OCO3)CC1` stands greater than 33300 nM; under `COc1cccc(N2CCN(C(=O)c3ccc4nc(N5CCC(C)CC5)sc4c3)CC2)c1`, 6580 nM.
Still for that read-out and setting: under `Cc1ccc(Cl)cc1N1CCN(C(=O)c2ccc3nc(N4CCC(C)CC4)sc3c2)CC1` stands 5800 nM.

The term IC50 denotes the concentration that gives 50% inhibition. The term Kd denotes the concentration at which binding is half-saturated.
